Reference: US11254668B2, “Pyrazolo[1,5-A]pyrazin-4-yl and related derivatives” (Pfizer Inc., priority 2017, dated 2022)
Like-named read-outs stand apart in the source and are kept apart here.

Experiments:
Format in all cases: biochemical
JAK2 = JAK2 (Homo sapiens (Human), UniProt O60674); assay: JAK Caliper Enzyme Assay at 1 mM ATP, JAK2
Experimental: Compounds of the invention were evaluated by in vitro methods to determine their respective ability to inhibit the JAK kinases (TYK2, JAK1, JAK2, JAK3).
The human JAK inhibitory activity was determined by using a microfluidic assay to monitor phosphorylation of a synthetic peptide by the recombinant human kinase domain of each of the four members of the JAK family, JAK1, JAK2, JAK3 and TYK2. […] Each assay condition was optimized for enzyme concentration and room temperature incubation time to obtain a conversion rate of 20% to 30% phosphorylated peptide product. Reactions were terminated by the addition of stop buffer containing EDTA. Utilizing the LabChip 3000 mobility shift technology (Caliper Life Science), each assay reaction was sampled to determine the level of phosphorylation. This technology is separation-based, allowing direct detection of fluorescently labeled substrates and products. Separations are controlled by a combination of vacuum pressure and electric field strength optimized for each peptide substrate.
JAK Caliper Enzyme Assay at 1mM ATP
Compounds were added to a 384-well plate.
The data was collected using the HTS Well Analyzer software from Caliper Life Sciences. The data output for data analysis is the percent product converted calculated on peak height (Equation 1). % product converted=100*((product)/(product+substrate)) Equation 1: […]
The percent effect at each compound concentration was calculated based on the positive and negative control well contained within each assay plate (Equation 2). […] The negative control wells contained DMSO alone (at the same concentration as the compound wells) that was used to set the baseline activity in the assay (i.e., uninhibited JAK1, JAK2, JAK3 or TYK2). % effect=100*([…](positive control-negative control)) Equation 2: […]
The percent effect was plotted against the compound concentration compound.

JAK1 = JAK1 (Homo sapiens (Human), UniProt P23458); assay: JAK Caliper Enzyme Assay at 1 mM ATP, JAK1
Chain of JAK1 (P23458 875-1153): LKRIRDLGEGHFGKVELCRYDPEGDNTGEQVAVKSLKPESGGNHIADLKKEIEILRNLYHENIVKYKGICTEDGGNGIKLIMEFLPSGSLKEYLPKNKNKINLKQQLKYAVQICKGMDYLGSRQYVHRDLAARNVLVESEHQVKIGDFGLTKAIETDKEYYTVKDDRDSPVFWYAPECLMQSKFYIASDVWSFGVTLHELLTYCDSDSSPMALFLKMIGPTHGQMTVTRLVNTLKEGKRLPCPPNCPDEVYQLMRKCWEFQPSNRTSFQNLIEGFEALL
How it was run: (§1)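 Recombinant human kinase domains phosphorylated a fluorescent synthetic peptide at room temperature, with enzyme level and time tuned to 20% to 30% conversion; EDTA stop buffer ended reactions. Mobility-shift separation gave percent product from peak heights, normalised to DMSO and positive controls, and IC50s came from concentration–effect curves.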

JAK3 = JAK3 (Homo sapiens (Human), UniProt P52333); assay: JAK Caliper Enzyme Assay at 1 mM ATP, JAK3
Chain of JAK3 (P52333 822-1111): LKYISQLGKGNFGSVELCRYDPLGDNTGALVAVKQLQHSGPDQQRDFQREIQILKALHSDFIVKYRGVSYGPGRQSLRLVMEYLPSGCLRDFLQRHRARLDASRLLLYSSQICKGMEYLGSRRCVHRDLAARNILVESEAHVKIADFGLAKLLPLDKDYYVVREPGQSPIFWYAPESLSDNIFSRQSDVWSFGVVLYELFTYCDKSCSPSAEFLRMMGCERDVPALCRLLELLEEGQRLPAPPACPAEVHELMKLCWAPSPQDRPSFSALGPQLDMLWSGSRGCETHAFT
How it was run: as §1

TYK2 = TYK2 (Homo sapiens (Human), UniProt P29597); assay: JAK Caliper Enzyme Assay at 1 mM ATP, TYK2
Chain of TYK2 (P29597 897-1176): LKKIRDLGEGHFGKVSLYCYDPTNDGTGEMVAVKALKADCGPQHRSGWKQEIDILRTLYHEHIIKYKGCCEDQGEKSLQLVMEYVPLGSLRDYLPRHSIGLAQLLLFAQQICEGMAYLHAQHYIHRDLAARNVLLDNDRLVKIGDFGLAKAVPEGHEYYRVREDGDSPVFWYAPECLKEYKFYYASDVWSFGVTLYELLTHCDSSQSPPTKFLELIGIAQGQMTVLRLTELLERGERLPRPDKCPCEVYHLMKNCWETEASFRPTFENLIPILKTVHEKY
How it was run: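 Read-out is Caliper LabChip mobility-shift separation of phosphorylated from unphosphorylated fluorescent peptide after EDTA termination. Each JAK kinase domain (human, recombinant) runs at 1 mM ATP at room temperature, adjusted for 20–30% turnover. Inhibition is normalized to DMSO and positive-control wells and plotted against concentration.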

Chain of JAK2 (O60674 849-1124): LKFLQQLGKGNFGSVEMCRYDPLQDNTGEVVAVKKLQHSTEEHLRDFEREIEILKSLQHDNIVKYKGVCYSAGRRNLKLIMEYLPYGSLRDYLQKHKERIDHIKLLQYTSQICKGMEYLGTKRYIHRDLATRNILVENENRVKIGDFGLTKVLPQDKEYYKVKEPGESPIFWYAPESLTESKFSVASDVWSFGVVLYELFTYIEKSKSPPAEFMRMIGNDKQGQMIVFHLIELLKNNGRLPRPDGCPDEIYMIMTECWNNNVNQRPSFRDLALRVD

Row | Compound | IC50 (JAK2) [nM] | IC50 (JAK1) [nM] | IC50 (JAK3) [nM] | IC50 (TYK2) [nM] | IC50 (JAK2; JAK Caliper enzyme assay) [nM] | IC50 (JAK1; JAK Caliper enzyme assay) [nM] | IC50 (JAK3; JAK Caliper enzyme assay) [nM] | IC50 (TYK2; JAK Caliper enzyme assay) [nM]
1 | Cn1cc(-c2cc(-c3ccn(C4(CC#N)CN(S(C)(=O)=O)C4)n3)c3cccnc3c2)cn1 [Example 286, [3-{3-[7-(1-methyl-1H-pyrazol-4-yl)quinolin-5-yl]-1H-pyrazol-1-yl}-1-(methylsulfonyl)azetidin-3-yl]acetonitrile] | 1810 | > 10000 | > 10000 | 212 | – | – | – | –
2 | 2-[3-{4-[7-(1-methyl-1H-pyrazol-4-yl)-1,6-naphthyridin-5-yl]-1H-pyrazol-1-yl}-1-(2,2,2-trifluoroethyl)azetidin-3- [Example 5] | 2950 | 2820 | > 10000 | 1110 | – | – | – | –
3 | CS(=O)(=O)c1ccc(-c2cc(-c3cnn([C@]4(CC#N)C[C@@H](C#N)C4)n3)c3cccnc3c2)nc1 [Example 369, trans-3-(cyanomethyl)-3-(4-{7-[5-(methylsulfonyl)pyridin-2-yl]quinolin-5-yl}-2H-1,2,3-triazol-2-yl)cyclobutanecarbonitrile] | 281 | 3510 | > 10000 | 55 | – | – | – | –
4 | CNS(=O)(=O)N1CC(CC#N)(n2ccc(-c3nc(-c4cnn(C)c4)cc4ncccc34)n2)C1 [Example 109, 3-(cyanomethyl)-N-methyl-3-{3-[7-(1-methyl-1H-pyrazol-4-yl)-1,6-naphthyridin-5-yl]-1H-pyrazol-1-yl}azetidine-1-sulfonamide] | 378 | 2370 | > 10000 | 68 | – | – | – | –
5 | N#CC[C@]1(n2ncc(-c3cc(-c4ccc(OCCN)cc4)cc4ncccc34)n2)C[C@H](C#N)C1 [Example 440, trans-3-(4-{7-[4-(2-aminoethoxy)phenyl]quinolin-5-yl}-2H-1,2,3-triazol-2-yl)-3-(cyanomethyl)cyclobutanecarbonitrile] | – | – | – | – | 805 | 6430 | > 10000 | 139
6 | Cc1nc(-c2cc(-c3cnn([C@]4(CC#N)C[C@H](C#N)C4)n3)c3cccnc3c2)ccc1CCO [Example 378, cis-3-(cyanomethyl)-3-(4-{7-[5-(2-hydroxyethyl)-6-methylpyridin-2-yl]quinolin-5-yl}-2H-1,2,3-triazol-2-yl)cyclobutanecarbonitrile] | – | – | – | – | 93 | 575 | 9500 | 35
7 | C[C@]1(C#N)C[C@](CC#N)(n2ccc(-c3nc(-c4cn[nH]c4)cc4ncccc34)n2)C1 [Example 83, trans-3-(cyanomethyl)-1-methyl-3-{3-[7-(1H-pyrazol-4-yl)-1,6-naphthyridin-5-yl]-1H-pyrazol-1-yl}cyclobutanecarbonitrile] | 2450 | 2240 | > 10000 | 410 | – | – | – | –
8 | CS(=O)(=O)N1CC(CC#N)(n2ncc(-c3cc(-c4cccc(CO)c4F)cc4ncccc34)n2)C1 [Example 445, [3-(4-{7-[2-fluoro-3-(hydroxymethyl)phenyl]quinolin-5-yl}-2H-1,2,3-triazol-2-yl)-1-(methylsulfonyl)azetidin-3-yl]acetonitrile] | – | – | – | – | 5610 | > 10000 | > 10000 | 330
9 | CS(=O)(=O)N1CC(CC#N)(n2ncc(-c3nc(-c4cc[nH]n4)cc4ncccc34)n2)C1 [Example 281, [1-(methylsulfonyl)-3-{4-[7-(1H-pyrazol-3-yl)-1,6-naphthyridin-5-yl]-2H-1,2,3-triazol-2-yl}azetidin-3-yl]acetonitrile] | 90 | 179 | > 10000 | 16 | – | – | – | –
10 | N#CCC1(n2ccc(-c3nc(-c4ccc(N)nc4)cc4ncccc34)n2)CN(CC(F)(F)F)C1 [Example 192] | 841 | 951 | > 10000 | 68 | – | – | – | –
11 | Cc1cc(-c2cc3ncccc3c(-c3ccn([C@]4(CC#N)C[C@@H](C#N)C4)n3)n2)n[nH]1 [Example 43, trans-3-(cyanomethyl)-3-{3-[7-(5-methyl-1H-pyrazol-3-yl)-1,6-naphthyridin-5-yl]-1H-pyrazol-1-yl}cyclobutanecarbonitrile] | 91 | 502 | > 10000 | 14 | – | – | – | –
12 | N#CCC1(n2ccc(-c3nc(-c4cnn(C5CCNCC5)c4)cc4ncccc34)n2)CN(CC(F)(F)F)C1 [Example 116, [3-(3-{7-[1-(piperidin-4-yl)-1H-pyrazol-4-yl]-1,6-naphthyridin-5-yl}-1H-pyrazol-1-yl)-1-(2,2,2-trifluoroethyl)azetidin-3-yl]acetonitrile] | 54 | 1040 | 4420 | 41 | – | – | – | –
13 | Cc1cncc(-c2cc3ncccc3c(-c3ccn(C4(CC#N)CN(CC(F)(F)F)C4)n3)n2)c1 [Example 173, [3-{3-[7-(5-methylpyridin-3-yl)-1,6-naphthyridin-5-yl]-1H-pyrazol-1-yl}-1-(2,2,2-trifluoroethyl)azetidin-3-yl]acetonitrile] | 7880 | > 10000 | > 10000 | 1880 | – | – | – | –
14 | CN1C(=O)COc2ccc(-c3cc(-c4cnn([C@]5(CC#N)C[C@H](C#N)C5)n4)c4cccnc4c3)nc21 [Example 425, cis-3-(cyanomethyl)-3-{4-[7-(4-methyl-3-oxo-3,4-dihydro-2H-pyrido[3,2-b][1,4]oxazin-6-yl)quinolin-5-yl]-2H-1,2,3-triazol-2-yl}cyclobutanecarbonitrile] | – | – | – | – | 29 | 608 | > 10000 | 12
15 | CNc1cc(-c2cc3ncccc3c(-c3ccn([C@]4(CC#N)C[C@@H](C#N)C4)n3)n2)nn1C [Example 70, trans-3-(cyanomethyl)-3-(3-{7-[1-methyl-5-(methylamino)-1H-pyrazol-3-yl]-1,6-naphthyridin-5-yl}-1H-pyrazol-1-yl)cyclobutanecarbonitrile] | 3500 | > 10000 | > 10000 | 661 | – | – | – | –
16 | CS(=O)(=O)N1CC(CC#N)(n2ncc(-c3cc(-c4cnc(N)nc4)cc4ncccc34)n2)C1 [Example 393, [3-{4-[7-(2-aminopyrimidin-5-yl)quinolin-5-yl]-2H-1,2,3-triazol-2-yl}-1-(methylsulfonyl)azetidin-3-yl]acetonitrile] | – | – | – | – | > 10000 | > 10000 | > 10000 | 3470
17 | N#CC[C@]1(n2ncc(-c3cc(-c4ccc(C(=O)O)cc4)cc4ncccc34)n2)C[C@H](C#N)C1 [Example 435, 4-(5-{2-[cis-3-cyano-1-(cyanomethyl)cyclobutyl]-2H-1,2,3-triazol-4-yl}quinolin-7-yl)benzoic acid] | – | – | – | – | 179 | 208 | > 10000 | 17
18 | CS(=O)(=O)N1CC(CC#N)(n2ccc(-c3nc(-c4c[nH]c5cccnc45)cc4ncccc34)n2)C1 [Example 160, [1-(methylsulfonyl)-3-{3-[7-(1H-pyrrolo[3,2-b]pyridin-3-yl)-1,6-naphthyridin-5-yl]-1H-pyrazol-1-yl}azetidin-3-yl]acetonitrile] | 5570 | > 10000 | > 10000 | 795 | – | – | – | –
19 | CO[C@H]1C[C@](CC#N)(n2ccc(-c3nc(-c4c[nH]nc4N)cc4ncccc34)n2)C1 [Example 96, (cis-1-{3-[7-(3-amino-1H-pyrazol-4-yl)-1,6-naphthyridin-5-yl]-1H-pyrazol-1-yl}-3-methoxycyclobutyl)acetonitrile] | 243 | 790 | > 10000 | 31 | – | – | – | –
20 | CS(=O)(=O)N1CC(CC#N)(n2ccc(-c3nc(-c4ccc(N)nc4N)cc4ncccc34)n2)C1 [Example 230, [3-{3-[7-(2,6-diaminopyridin-3-yl)-1,6-naphthyridin-5-yl]-1H-pyrazol-1-yl}-1-(methylsulfonyl)azetidin-3-yl]acetonitrile] | 451 | 1120 | > 10000 | 33 | – | – | – | –
21 | Cc1ccc(-c2cc3ncccc3c(-c3ccn(C4(CC#N)CN(CC(F)(F)F)C4)n3)n2)cn1 [Example 177, [3-{3-[7-(6-methylpyridin-3-yl)-1,6-naphthyridin-5-yl]-1H-pyrazol-1-yl}-1-(2,2,2-trifluoroethyl)azetidin-3-yl]acetonitrile] | 794 | 2610 | > 10000 | 58 | – | – | – | –
